Test results published in patent US9284283B2, “Macrocyclic compounds for modulating IL-17” (ENSEMBLE THERAPEUTICS CORPORATION, priority 2012, dated 2016).

What was measured:
[1] = test system: IL-17A induced secretion of IL-6 in primary human RASF cells; assay: Inhibition of IL17A induced secretion of IL6 in human rheumatoid arthritis synovial fibroblast (RASF) cells; format: cell-based; settings: Homo sapiens, Fibroblast
Method: This assay was used to determine the extent of inhibition of IL-17A induced secretion of IL-6 in primary human rheumatoid synovial fibroblast (RASF) cells by compounds of the invention. IL-17A is known to stimulate IL-6 production in RASF cells.
Low passage (passage 2-8) Primary human RASF cells (Asterand) were maintained in maintenance medium. Cells were detached from flasks by tryptic digestion and the cell density of the suspension determined. To each well of a 96 well culture plate was added 100 μL of seeding medium containing 50,000 cells/mL and the plate incubated overnight in a humidified 37° C., 5% CO2 incubator. The medium was replaced with fresh assay medium and cells were incubated for additional 5 hours in a humidified 37° C., 5% CO2 incubator prior to stimulation with recombinant human IL-17A (“rhIL-17A”). Prior to addition to cells, rhIL-17A (30 ng/mL) in assay medium was incubated with either DMSO alone, compounds, or anti-IL17 receptor antibody (3 μg/mL) for 1 hour at 37° C. The final concentration of DMSO in all samples was 0.25%. The final concentration of compounds varied from 0.03 μM to 25 μM.
Immediately before stimulation, cells were washed once with fresh assay medium. Then, 100 μL of the test samples was added in triplicate wells and the plates incubated for 20 hours in a humidified 37° C., 5% CO2 incubator. The assay medium from each well was collected and the IL-6 concentration in cell culture supernatants was determined by ELISA either immediately or after storage at −20° C.
A water-soluble tetrazolium salt (WST1) viability assay was immediately performed on the cells after the conditioned medium was collected using a WST1 reagent purchased from Roche. The concentration of IL-6 obtained from ELISA was normalized by the WST1 data.

[2] = biological target: T1, biotinylated human IL-17 (binding to IL17R/Fc) (Homo sapiens, UniProt Q16552); assay: IL-17 competition ELISA II (captured IL17R/Fc, biotinylated IL-17)
T1 construct: purchased R&D Systems 317-ILB (IL-17, biotinylated); 177-IR (IL17R/Fc)
T1 sequence (Q16552 20-155 limits assumed): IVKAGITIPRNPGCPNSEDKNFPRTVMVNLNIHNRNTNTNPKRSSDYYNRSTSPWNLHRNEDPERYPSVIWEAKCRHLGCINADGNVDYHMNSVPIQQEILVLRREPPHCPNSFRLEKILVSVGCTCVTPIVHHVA
In short: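 Anti-human IgG-coated plates captured IL17R/Fc (10 nM), then compound (5-fold dilutions from 1 μM) and biotinylated human IL-17 (20 nM stock) were added for 30 min at room temperature in PBST. Bound IL-17 detected by streptavidin-HRP/TMB at 450 nm. IC50 from 4-parameter logistic fit between no-competitor and blank controls.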

[3] = biological target: T2, recombinant human IL17a (binding to its receptor IL17R) (Homo sapiens, UniProt Q16552); assay: IL-17 competition ELISA I (IL17a coated, IL17R/Fc binding)
T2 construct: purchased R&D Systems 317-ILB (IL17a); 177-IR (IL17R/Fc)
T2 sequence (Q16552 20-155 limits assumed): T1 sequence (Q16552 20-155 limits assumed)
In short: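 Plates coated with 20 nM recombinant human IL17a received compound dilutions and 12 nM IL17R/Fc (final) for 30 min at room temperature. Bound receptor was detected with HRP anti-human Fc and TMB, read at 450 nm. IC50 came from a 4-parameter logistic fit between no-competitor and blank controls.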

Cc1ccccc1C[C@H](NC(=O)Cc1ccc(F)cc1)C(=O)Nc1ccc(C[C@H]2NC(=O)CC3(CCCC3)CC(=O)NCCCCCNC(=O)[C@@H](C)NC2=O)cc1 [Compound 476]
IC50 [1]: 100 to 1000 nM | IC50 [2]: < 100 nM

O=C1CC2(CCCC2)CC(=O)N[C@H](Cc2ccc(NC(=O)[C@H](Cc3ccccc3Cl)NC(=O)Cc3ccc(F)cc3)cc2)C(=O)NCC#CCCCCCN1 [Compound 446]
IC50 [1]: 100 to 1000 nM | IC50 [2]: < 100 nM

C[C@H]1NC(=O)[C@@H](Cc2ccc(NC(=O)[C@H](Cc3ccccc3Cl)NC(=O)Cc3ccccc3)cc2)NC(=O)CC2(CCCC2)CC(=O)NCCNCCNC1=O [Compound 443]
IC50 [1]: 100 to 1000 nM | IC50 [2]: < 100 nM

O=C1CC2(CCCC2)CC(=O)N[C@H](Cc2ccc(NC(=O)[C@H](Cc3ccccc3Cl)NC(=O)Cc3ccc(OCCN4CCOCC4)cc3)cc2)C(=O)N[C@H](Cc2ccccc2)C(=O)NCCCCCN1 [Compound 439]
IC50 [1]: 100 to 1000 nM | IC50 [2]: < 100 nM

CC(O)[C@H]1NC(=O)[C@@H](Cc2ccc(NC(=O)[C@H](Cc3ccccc3Cl)NC(=O)C(F)(F)c3ccccc3)cc2)NC(=O)CC2(CCCC2)CC(=O)N(C)CCOCCN(C)C1=O (stereo partly drawn) [Compound 639]
IC50 [1]: 1000 to 10000 nM | IC50 [2]: < 100 nM

Cc1ccccc1C[C@H](NC(=O)C(F)(F)c1ccccc1)C(=O)Nc1ccc(C[C@H]2NC(=O)CC3(CCCC3)CC(=O)N(C)CCCCCNC(=O)[C@@H](C)NC2=O)cc1 [Compound 512]
IC50 [1]: 100 to 1000 nM

O=C1CNC(=O)[C@@H](Cc2ccc(NC(=O)[C@H](Cc3ccccc3Cl)NC(=O)Cc3cccnc3)cc2)NC(=O)CC2(CCCC2)CC(=O)NCCCCCN1 [Compound 198]
IC50 [1]: 1000 to 10000 nM

O=C1CNC(=O)[C@@H](Cc2ccc(NC(=O)[C@@H](NC(=O)Cc3ccc(CO)cc3)C3CCCCC3)cc2)NC(=O)CC2(CCCC2)CC(=O)NCCCCCN1 [Compound 375]
IC50 [3]: 100 to 1000 nM | IC50 [2]: < 100 nM

O=C1CC2(CCCC2)CC(=O)N[C@H](Cc2ccc(NC(=O)[C@@H](NC(=O)Cc3ccc(CO)cc3)C3CCCCC3)cc2)C(=O)NCCCCCCCCCN1 [Compound 359]
IC50 [3]: 1000 to 10000 nM | IC50 [2]: < 100 nM

O=C1CC2(CCCC2)CC(=O)N[C@H](Cc2ccc(NC(=O)[C@@H](NC(=O)Cc3ccccc3)C3CCCCC3)cc2)C(=O)NCCOCCOCCN1 [Compound 333]
IC50 [3]: 100 to 1000 nM | IC50 [2]: < 100 nM

O=C1CC2(CCCC2)CC(=O)N[C@H](Cc2ccc(NC(=O)[C@H](Cc3ccccc3Cl)NC(=O)Cc3ccccc3)cc2)C(=O)NCCCCCCN1 [Compound 345]
IC50 [3]: 100 to 1000 nM | IC50 [2]: < 100 nM

CC[C@H](C)[C@H](NC(=O)Cc1ccccc1)C(=O)Nc1ccc(C[C@H]2NC(=O)CC3(CCCC3)CC(=O)NCCCCCNC(=O)CNC2=O)cc1 [Compound 311]
IC50 [3]: 100 to 1000 nM | IC50 [2]: < 100 nM

C[C@H]1NC(=O)[C@@H](Cc2ccc(NC(=O)[C@@H](NC(=O)Cc3ccc(CO)cc3)C3CCCCC3)cc2)NC(=O)CC2(CCCC2)CC(=O)NCCCCCNC1=O [Compound 360]
IC50 [3]: 100 to 1000 nM | IC50 [2]: < 100 nM

O=C1CC2(CCCC2)CC(=O)N[C@H](Cc2ccc(NC(=O)[C@H](Cc3ccccc3Cl)NC(=O)Cc3ccccc3)cc2)C(=O)NCCCCCCCCCN1 [Compound 349]
IC50 [3]: 1000 to 10000 nM | IC50 [2]: < 100 nM

O=C1CC2(CCCC2)CC(=O)N[C@H](Cc2ccc(NC(=O)[C@H](Cc3ccccc3Cl)NC(=O)Cc3ccc(CO)cc3)cc2)C(=O)NCCCCCCCN1 [Compound 356]
IC50 [3]: 100 to 1000 nM | IC50 [2]: < 100 nM

O=C1CNC(=O)[C@@H](Cc2ccc(NC(=O)[C@@H](NC(=O)c3ccccc3)C3CCCCC3)cc2)NC(=O)CC2(CCCC2)CC(=O)NCCCCCN1 [Compound 379]
IC50 [3]: 1000 to 10000 nM | IC50 [2]: < 100 nM

CCCC[C@H](NC(=O)Cc1ccccc1)C(=O)Nc1ccc(C[C@H]2NC(=O)CC3(CCCC3)CC(=O)NCCCCCNC(=O)CNC2=O)cc1 [Compound 312]
IC50 [3]: 100 to 1000 nM | IC50 [2]: < 100 nM

O=C1CNC(=O)[C@@H](Cc2ccc(NC(=O)[C@@H](NC(=O)Cc3ccccn3)C3CCCCC3)cc2)NC(=O)CC2(CCCC2)CC(=O)NCCCCCN1 [Compound 381]
IC50 [3]: 100 to 1000 nM | IC50 [2]: < 100 nM

CN1CCCCCCCCN(C)C(=O)[C@@H](Cc2ccc(N(C)C(=O)[C@H](Cc3ccccc3Cl)N(C)C(=O)c3ccccc3)cc2)N(C)C(=O)CC2(CCCC2)CC1=O [Compound 372]
IC50 [3]: 1000 to 10000 nM | IC50 [2]: 100 to 1000 nM

O=C1CNC(=O)[C@@H](Cc2ccc(NC(=O)[C@@H](NC(=O)c3cccnc3)C3CCCCC3)cc2)NC(=O)CC2(CCCC2)CC(=O)N[C@H](C(=O)O)CCCCN1 [Compound 384]
IC50 [3]: 100 to 1000 nM | IC50 [2]: < 100 nM

O=C1CC2(CCCC2)CC(=O)N[C@H](Cc2ccc(NC(=O)[C@H](Cc3ccccc3Cl)NC(=O)Cc3ccccc3)cc2)C(=O)NCCCCCCCCN1 [Compound 259]
IC50 [3]: 100 to 1000 nM | IC50 [2]: < 100 nM

O=C1CNC(=O)[C@@H](Cc2ccc(NC(=O)[C@@H](NC(=O)Cc3ccc(F)c(F)c3)C3CCCCC3)cc2)NC(=O)CC2(CCCC2)CC(=O)NCCCCCN1 [Compound 373]
IC50 [3]: < 100 nM | IC50 [2]: < 100 nM

O=C1CC2(CCCC2)CC(=O)N[C@H](Cc2ccc(NC(=O)[C@H](Cc3ccccc3Cl)NC(=O)Cc3ccccc3)cc2)C(=O)NCCCCCCCN1 [Compound 347]
IC50 [3]: 100 to 1000 nM | IC50 [2]: < 100 nM

O=C1CC2(CCCC2)CC(=O)N[C@H](Cc2ccc(NC(=O)[C@H](Cc3ccccc3Cl)NC(=O)Cc3ccc(CO)cc3)cc2)C(=O)NC/C=C/CCCCN1 [Compound 364]
IC50 [3]: 100 to 1000 nM | IC50 [2]: < 100 nM

CC(C)C[C@H](NC(=O)Cc1ccccc1)C(=O)Nc1ccc(C[C@H]2NC(=O)CC3(CCCC3)CC(=O)NCCCCCNC(=O)CNC2=O)cc1 [Compound 310]
IC50 [3]: 100 to 1000 nM | IC50 [2]: < 100 nM

O=C1CNC(=O)[C@@H](Cc2ccc(NC(=O)[C@@H](NC(=O)Cc3ccc(F)cc3F)C3CCCCC3)cc2)NC(=O)CC2(CCCC2)CC(=O)NCCCCCN1 [Compound 374]
IC50 [3]: < 100 nM | IC50 [2]: < 100 nM

O=C1CC2(CCCC2)CC(=O)N[C@H](Cc2ccc(NC(=O)[C@H](Cc3ccccc3Cl)NC(=O)Cc3ccccc3)cc2)C(=O)NCCOCCOCCN1 [Compound 292]
IC50 [3]: 100 to 1000 nM | IC50 [2]: < 100 nM

O=C1CC2(CCCC2)CC(=O)N[C@H](Cc2ccc(NC(=O)[C@@H](NC(=O)Cc3ccc(CO)cc3)C3CCCCC3)cc2)C(=O)NCCCCCCN1 [Compound 355]
IC50 [3]: 1000 to 10000 nM | IC50 [2]: < 100 nM

C[C@H]1NC(=O)[C@@H](Cc2ccc(NC(=O)[C@@H](NC(=O)c3cccnc3)C3CCCCC3)cc2)NC(=O)CC2(CCCC2)CC(=O)N[C@H](C(=O)O)CCCCNC1=O [Compound 370]
IC50 [3]: 100 to 1000 nM | IC50 [2]: < 100 nM

CN1CCCCCNC(=O)CNC(=O)[C@@H](Cc2ccc(NC(=O)[C@H](Cc3ccccc3Cl)NC(=O)Cc3ccccc3)cc2)NC(=O)CC2(CCCC2)CC1=O [Compound 280]
IC50 [3]: < 100 nM | IC50 [2]: < 100 nM

CC(=O)N[C@H](C(=O)Nc1ccc(C[C@H]2NC(=O)CC3(CCCC3)CC(=O)NCCCCCNC(=O)CNC2=O)cc1)C1CCCCC1 [Compound 377]
IC50 [3]: < 100 nM | IC50 [2]: 100 to 1000 nM

O=C1CNC(=O)[C@@H](Cc2ccc(NC(=O)[C@@H](NC(=O)Cc3ccc(F)cc3)C3CCCCC3)cc2)NC(=O)CC2(CCCC2)CC(=O)NCCCCCN1 [Compound 380]
IC50 [1]: 100 to 1000 nM

CC(C)[C@H](NC(=O)Cc1ccccc1)C(=O)Nc1ccc(C[C@H]2NC(=O)CC3(CCCC3)CC(=O)NCCCCCNC(=O)CNC2=O)cc1 [Compound 313]
IC50 [3]: 100 to 1000 nM | IC50 [2]: < 100 nM

O=C1CC2(CCCC2)CC(=O)N[C@H](Cc2ccc(NC(=O)[C@@H](NC(=O)Cc3ccc(CO)cc3)C3CCCCC3)cc2)C(=O)NCCOCCOCCN1 [Compound 344]
IC50 [3]: 1000 to 10000 nM | IC50 [2]: 100 to 1000 nM

O=C1CC2(CCCC2)CC(=O)N[C@H](Cc2ccc(NC(=O)[C@@H](NC(=O)Cc3ccc(CO)cc3)C3CCCCC3)cc2)C(=O)NCCCCCCCN1 [Compound 357]
IC50 [3]: 100 to 1000 nM | IC50 [2]: < 100 nM

O=C1CNC(=O)[C@@H](Cc2ccc(NC(=O)[C@H](Cc3ccccc3Cl)NC(=O)Cc3c(F)cc(F)cc3F)cc2)NC(=O)CC2(CCCC2)CC(=O)NCCCCCN1 [Compound 325]
IC50 [3]: < 100 nM | IC50 [2]: < 100 nM
